The numbers were not newly measured in patent US20110052625A1, “COMPOSITIONS AND METHODS FOR TREATING DIABETES USING LISOFYLLINE ANALOGS AND ISLET NEOGENESIS ASSOCIATED PEPTIDE” (DIAKINE THERAPEUTICS, INC., priority 2008, published 2011), which cites them from elsewhere.

Ends that are not written are not given here.

In this series the test system is overt diabetic NOD (Non-Obese Diabetic) mice. To be noted: given alone; cited from earlier work.

For the substance “GLP-1: "a 300-amino-acid (peptide) incretin synthesized in the small and large intestine by the L-type cells" (HAEGTFTSDVSSYLEGQAAKEFIAWLVKGR; ends and bridges not checked; UniProt P01275 98-127, looked up)”, the effect on hyperglycemia entry was “no effect”.
